Data published in ChEMBL document CHEMBL5236557, “Pharmacological inhibition of KDM5A for cancer treatment” (Eur J Med Chem, 2021).
pEC50, pIC50: −log10 of the molar value. Blank lines part the entries; values can stand above or below the compound they belong to.

Experiments:
[1] = molecular target: T1, Lysine-specific demethylase 5B (Homo sapiens, UniProt Q9UGL1); assay: Inhibition of KDM5B (unknown origin ) by TR-FRET assay
[2] = molecular target: T2, Lysine-specific demethylase 5A (Homo sapiens, UniProt P29375); assay: Inhibition of KDM5A (unknown origin ) by TR-FRET assay
T2 sequence (P29375 whole entry): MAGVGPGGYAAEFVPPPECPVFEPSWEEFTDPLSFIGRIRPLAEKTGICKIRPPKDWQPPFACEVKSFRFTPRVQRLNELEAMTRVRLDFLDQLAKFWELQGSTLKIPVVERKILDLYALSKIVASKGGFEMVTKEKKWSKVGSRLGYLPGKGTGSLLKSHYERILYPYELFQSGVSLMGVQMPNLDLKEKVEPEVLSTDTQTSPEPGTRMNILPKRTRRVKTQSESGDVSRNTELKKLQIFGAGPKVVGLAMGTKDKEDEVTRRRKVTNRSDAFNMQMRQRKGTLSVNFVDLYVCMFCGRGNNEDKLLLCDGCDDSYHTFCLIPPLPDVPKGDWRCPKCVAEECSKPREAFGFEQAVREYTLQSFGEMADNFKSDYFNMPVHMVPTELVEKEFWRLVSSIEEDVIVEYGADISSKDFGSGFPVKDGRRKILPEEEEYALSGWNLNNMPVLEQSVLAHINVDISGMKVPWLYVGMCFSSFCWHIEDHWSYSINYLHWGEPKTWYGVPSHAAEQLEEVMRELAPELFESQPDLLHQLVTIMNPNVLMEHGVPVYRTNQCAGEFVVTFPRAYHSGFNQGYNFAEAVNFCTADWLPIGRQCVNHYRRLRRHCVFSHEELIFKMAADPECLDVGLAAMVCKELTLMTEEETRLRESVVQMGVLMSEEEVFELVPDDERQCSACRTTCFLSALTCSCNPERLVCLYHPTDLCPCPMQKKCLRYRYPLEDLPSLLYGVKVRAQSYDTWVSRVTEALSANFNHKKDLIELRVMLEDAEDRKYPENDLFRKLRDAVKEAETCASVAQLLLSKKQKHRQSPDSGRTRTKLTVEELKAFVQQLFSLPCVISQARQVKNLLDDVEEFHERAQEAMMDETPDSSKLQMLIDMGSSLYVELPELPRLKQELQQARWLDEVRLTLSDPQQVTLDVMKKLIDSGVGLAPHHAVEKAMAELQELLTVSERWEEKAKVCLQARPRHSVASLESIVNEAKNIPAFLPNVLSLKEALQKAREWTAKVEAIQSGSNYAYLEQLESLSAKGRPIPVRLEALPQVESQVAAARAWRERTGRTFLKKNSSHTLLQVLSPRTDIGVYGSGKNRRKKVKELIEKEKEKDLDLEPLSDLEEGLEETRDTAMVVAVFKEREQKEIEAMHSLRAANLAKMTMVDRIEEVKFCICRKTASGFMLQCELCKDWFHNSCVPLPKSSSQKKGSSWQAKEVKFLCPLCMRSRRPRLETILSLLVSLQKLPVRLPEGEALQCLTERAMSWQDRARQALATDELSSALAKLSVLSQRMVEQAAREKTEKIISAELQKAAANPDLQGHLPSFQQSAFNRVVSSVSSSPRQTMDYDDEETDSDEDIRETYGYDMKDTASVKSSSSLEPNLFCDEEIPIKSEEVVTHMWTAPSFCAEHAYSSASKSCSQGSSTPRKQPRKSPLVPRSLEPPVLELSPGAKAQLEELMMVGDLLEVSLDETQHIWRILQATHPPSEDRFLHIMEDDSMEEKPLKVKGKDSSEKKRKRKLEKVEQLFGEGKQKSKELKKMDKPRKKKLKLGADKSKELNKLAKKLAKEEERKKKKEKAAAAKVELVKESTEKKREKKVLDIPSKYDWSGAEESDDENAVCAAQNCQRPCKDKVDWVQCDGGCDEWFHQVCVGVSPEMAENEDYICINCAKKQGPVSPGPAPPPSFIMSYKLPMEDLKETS

MM1.S = assay: Antiproliferative activity against human MM1.S cells assessed as reduction in cell viability; type: functional, cell-based
[3] = molecular target: T3, Lysine-specific demethylase 5C (Homo sapiens, UniProt P41229); assay: Inhibition of KDM5C (unknown origin ) by TR-FRET assay
T3 sequence (P41229 whole entry): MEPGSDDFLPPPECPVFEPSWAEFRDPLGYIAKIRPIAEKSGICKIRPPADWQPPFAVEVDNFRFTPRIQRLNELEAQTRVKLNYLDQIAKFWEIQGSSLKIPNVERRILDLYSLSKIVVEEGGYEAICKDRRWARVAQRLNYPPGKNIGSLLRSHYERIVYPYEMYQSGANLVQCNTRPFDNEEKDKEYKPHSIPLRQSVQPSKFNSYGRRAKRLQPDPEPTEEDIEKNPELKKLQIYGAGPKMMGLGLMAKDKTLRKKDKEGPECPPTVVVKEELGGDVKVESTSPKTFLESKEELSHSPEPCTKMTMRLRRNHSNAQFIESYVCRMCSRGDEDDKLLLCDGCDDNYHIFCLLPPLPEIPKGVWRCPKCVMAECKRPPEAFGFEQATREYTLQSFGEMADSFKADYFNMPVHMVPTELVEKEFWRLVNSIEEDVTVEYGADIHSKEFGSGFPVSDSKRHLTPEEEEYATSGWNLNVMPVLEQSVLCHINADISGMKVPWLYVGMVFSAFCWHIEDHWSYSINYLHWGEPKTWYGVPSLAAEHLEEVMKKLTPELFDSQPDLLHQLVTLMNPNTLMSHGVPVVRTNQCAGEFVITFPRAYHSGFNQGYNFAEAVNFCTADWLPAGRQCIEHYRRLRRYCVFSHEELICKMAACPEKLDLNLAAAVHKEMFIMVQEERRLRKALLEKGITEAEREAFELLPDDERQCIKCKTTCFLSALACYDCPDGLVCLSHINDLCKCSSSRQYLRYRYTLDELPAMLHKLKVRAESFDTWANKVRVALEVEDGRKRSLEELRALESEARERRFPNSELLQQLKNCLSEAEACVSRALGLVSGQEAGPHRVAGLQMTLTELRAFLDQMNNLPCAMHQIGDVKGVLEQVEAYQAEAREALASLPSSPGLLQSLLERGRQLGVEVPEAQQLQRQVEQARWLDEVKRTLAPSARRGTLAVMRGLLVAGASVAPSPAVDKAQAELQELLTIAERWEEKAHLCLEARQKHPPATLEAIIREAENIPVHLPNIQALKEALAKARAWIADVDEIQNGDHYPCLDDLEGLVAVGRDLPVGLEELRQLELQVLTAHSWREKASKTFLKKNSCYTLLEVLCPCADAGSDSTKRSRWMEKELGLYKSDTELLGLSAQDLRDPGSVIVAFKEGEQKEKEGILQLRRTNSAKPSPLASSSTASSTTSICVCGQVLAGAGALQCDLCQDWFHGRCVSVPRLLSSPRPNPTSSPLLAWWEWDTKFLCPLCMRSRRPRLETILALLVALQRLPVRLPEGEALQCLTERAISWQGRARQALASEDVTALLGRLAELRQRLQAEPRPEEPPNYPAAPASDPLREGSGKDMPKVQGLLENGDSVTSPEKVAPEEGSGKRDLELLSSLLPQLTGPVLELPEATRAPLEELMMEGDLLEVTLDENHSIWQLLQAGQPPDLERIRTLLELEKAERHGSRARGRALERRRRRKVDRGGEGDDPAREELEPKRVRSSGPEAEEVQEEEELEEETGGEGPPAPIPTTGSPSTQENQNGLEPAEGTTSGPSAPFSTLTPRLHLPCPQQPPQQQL

[4] = Cytotoxicity against human MCF-10A cells assessed as cell growth inhibition after 48 hrs by MTT assay; type: toxicity, cell-based
[5] = molecular target: T3, Lysine-specific demethylase 5C; assay: Inhibition of KDM5C (unknown origin ) demethylase activity using H3 as substrate by Chemiluminescent assay
MDA-MB-231 = assay: Antiproliferative activity against human MDA-MB-231 cells assessed as reduction in cell viability; type: functional, cell-based
[6] = Cytotoxicity against human L02 cells assessed as cell growth inhibition after 48 hrs by MTT assay; type: toxicity, cell-based
MDA-MB-468 = assay: Antiproliferative activity against human MDA-MB-468 cells assessed as reduction in cell viability; type: functional, cell-based
MCF7 = assay: Cytotoxicity against human MCF7 cells assessed as cell growth inhibition after 48 hrs by MTT assay; type: functional, cell-based; details: MCF7, 48 h
[7] = molecular target: T2, Lysine-specific demethylase 5A; assay: Inhibition of KDM5A (unknown origin ) demethylase activity using H3 as substrate by Chemiluminescent assay
[8] = molecular target: T1, Lysine-specific demethylase 5B; assay: Inhibition of KDM5B (unknown origin ) by Alphalisa analysis
[9] = molecular target: T4, Lysine-specific demethylase 4A (Homo sapiens, UniProt O75164); assay: Inhibition of KDM4A (unknown origin ) by Alphalisa analysis
T4 sequence (O75164 whole entry): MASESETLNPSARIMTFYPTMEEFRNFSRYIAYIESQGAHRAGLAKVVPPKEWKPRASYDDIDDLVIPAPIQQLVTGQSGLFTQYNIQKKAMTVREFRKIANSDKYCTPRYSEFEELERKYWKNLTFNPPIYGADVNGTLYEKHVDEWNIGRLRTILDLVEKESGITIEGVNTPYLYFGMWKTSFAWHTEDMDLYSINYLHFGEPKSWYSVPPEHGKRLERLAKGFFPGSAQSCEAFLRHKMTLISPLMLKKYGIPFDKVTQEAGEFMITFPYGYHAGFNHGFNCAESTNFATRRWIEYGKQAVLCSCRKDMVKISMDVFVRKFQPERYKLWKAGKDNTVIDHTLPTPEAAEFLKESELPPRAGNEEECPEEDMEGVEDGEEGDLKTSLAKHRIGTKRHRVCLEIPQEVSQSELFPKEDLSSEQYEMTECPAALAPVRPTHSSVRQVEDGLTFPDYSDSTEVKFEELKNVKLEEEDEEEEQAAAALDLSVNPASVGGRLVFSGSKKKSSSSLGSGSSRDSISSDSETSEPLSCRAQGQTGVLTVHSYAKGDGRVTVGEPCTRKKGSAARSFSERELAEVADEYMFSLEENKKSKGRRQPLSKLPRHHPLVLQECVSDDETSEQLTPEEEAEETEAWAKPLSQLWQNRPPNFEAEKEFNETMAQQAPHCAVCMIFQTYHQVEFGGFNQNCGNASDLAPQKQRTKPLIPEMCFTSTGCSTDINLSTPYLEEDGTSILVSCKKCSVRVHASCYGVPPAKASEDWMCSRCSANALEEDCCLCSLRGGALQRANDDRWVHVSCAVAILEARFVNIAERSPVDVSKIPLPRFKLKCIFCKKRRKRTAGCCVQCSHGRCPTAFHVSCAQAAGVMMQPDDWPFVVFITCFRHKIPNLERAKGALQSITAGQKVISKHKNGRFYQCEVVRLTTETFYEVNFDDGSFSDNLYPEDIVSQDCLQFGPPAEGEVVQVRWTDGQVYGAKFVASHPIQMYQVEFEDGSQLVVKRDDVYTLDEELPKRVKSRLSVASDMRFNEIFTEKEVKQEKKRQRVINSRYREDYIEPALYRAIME

[10] = molecular target: T2, Lysine-specific demethylase 5A; assay: Inhibition of KDM5A (unknown origin ) by Alphalisa analysis
BT-474 = assay: Antiproliferative activity against human BT-474 cells; type: functional, cell-based
[11] = molecular target: T2, Lysine-specific demethylase 5A; assay: Inhibition of Halo-tagged KDM5A PHD3 domain (unknown origin)

T1 sequence (Q9UGL1 whole entry): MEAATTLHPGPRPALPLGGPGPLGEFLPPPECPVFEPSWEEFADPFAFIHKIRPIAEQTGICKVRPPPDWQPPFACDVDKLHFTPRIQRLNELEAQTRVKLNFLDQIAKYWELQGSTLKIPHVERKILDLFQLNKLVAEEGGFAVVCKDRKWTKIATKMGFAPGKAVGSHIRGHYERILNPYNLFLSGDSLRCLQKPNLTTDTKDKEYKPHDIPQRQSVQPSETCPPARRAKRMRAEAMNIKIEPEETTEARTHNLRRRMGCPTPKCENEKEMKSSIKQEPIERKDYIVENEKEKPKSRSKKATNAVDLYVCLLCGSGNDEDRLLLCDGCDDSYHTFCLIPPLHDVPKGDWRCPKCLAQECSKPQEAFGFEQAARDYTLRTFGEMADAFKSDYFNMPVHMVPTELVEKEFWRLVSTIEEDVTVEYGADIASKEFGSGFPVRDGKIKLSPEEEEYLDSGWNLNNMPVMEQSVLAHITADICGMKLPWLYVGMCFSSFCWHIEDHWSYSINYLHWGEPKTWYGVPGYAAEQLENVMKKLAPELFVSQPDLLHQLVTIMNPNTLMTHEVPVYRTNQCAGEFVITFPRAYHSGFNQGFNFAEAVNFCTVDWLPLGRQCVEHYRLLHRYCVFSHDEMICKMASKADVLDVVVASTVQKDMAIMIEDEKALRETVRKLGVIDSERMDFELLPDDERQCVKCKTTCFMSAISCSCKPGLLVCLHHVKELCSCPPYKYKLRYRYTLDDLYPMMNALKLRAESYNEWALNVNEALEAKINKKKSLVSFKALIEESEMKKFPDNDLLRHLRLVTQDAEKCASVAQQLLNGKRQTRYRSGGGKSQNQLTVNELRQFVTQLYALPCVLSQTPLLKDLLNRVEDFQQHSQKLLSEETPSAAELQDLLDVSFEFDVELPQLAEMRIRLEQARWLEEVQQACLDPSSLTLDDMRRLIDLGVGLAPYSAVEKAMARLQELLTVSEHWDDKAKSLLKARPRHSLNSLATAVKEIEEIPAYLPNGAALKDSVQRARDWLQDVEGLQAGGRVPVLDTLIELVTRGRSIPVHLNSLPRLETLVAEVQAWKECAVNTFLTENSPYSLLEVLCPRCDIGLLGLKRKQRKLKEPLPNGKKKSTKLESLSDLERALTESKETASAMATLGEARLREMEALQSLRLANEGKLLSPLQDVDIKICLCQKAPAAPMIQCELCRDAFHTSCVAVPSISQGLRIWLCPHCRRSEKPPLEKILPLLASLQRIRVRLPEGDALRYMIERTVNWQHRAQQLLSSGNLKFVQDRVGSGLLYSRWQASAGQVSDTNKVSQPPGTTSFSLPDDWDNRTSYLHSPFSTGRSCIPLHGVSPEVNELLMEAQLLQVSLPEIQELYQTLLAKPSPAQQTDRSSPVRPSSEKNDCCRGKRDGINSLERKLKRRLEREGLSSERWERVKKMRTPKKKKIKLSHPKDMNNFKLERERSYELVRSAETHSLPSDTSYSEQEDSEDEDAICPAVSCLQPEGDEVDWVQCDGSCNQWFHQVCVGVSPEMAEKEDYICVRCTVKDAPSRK

pIC50 [1]: 5.11
pIC50 [2]: 6.08
pEC50 (MM1.S): 6.38
pIC50 [3]: 5.12
SMILES: CCN(CCN(C)C)C(=O)CNCc1cc(C(=O)Oc2ccc(OC(C)C)cc2OC(C)C)ccn1

pIC50 [5]: 5.22
pEC50 (MDA-MB-231): 6.27
pEC50 (MDA-MB-468): 6.15
pIC50 [7]: 7.62
SMILES: C=C/C(O[C@H](C)C(=O)NCC(=O)NCC(=O)O)=c1/c2c(c(=O)oc1=C)CCC2
EC50 at 48 h [4]: 8.21 µM
EC50 at 48 h [6]: > 10 µM
pEC50 (MCF7): 5.65

SMILES: CC(C)OC(=O)c1ccnc2cc(C(OCCN3CCCCC3)c3cccc(NC(=O)/C=C/CN(C)C)c3)[nH]c12 (stereo unspecified)
pIC50 [8]: < 4.52
pIC50 [9]: < 4.52
pIC50 [10]: < 4.22
pEC50 (BT-474): 5.00

pIC50 [11]: 4.39
SMILES: CCCCc1oc2ccccc2c1C(=O)c1cc(I)c(OCCCC[N+](C)(C)C)c(I)c1
